Results: patent publication US20260226048A1, “MULTI-CYCLIC IRAK AND FLT3 INHIBITING COMPOUNDS AND USES THEREOF” (CHILDREN'S HOSPITAL MEDICAL CENTER, priority 2023, published 2026)

These compounds were tested against T1, FLT3 (Homo sapiens, UniProt P36888) (assay: Reaction Biology NanoBRET target engagement assay in HEK-293 cells, FLT3). Settings: live HEK-293 cells transfected with Kinase-NanoLuc fusion, 1 hour.
T1 sequence (P36888 27-993): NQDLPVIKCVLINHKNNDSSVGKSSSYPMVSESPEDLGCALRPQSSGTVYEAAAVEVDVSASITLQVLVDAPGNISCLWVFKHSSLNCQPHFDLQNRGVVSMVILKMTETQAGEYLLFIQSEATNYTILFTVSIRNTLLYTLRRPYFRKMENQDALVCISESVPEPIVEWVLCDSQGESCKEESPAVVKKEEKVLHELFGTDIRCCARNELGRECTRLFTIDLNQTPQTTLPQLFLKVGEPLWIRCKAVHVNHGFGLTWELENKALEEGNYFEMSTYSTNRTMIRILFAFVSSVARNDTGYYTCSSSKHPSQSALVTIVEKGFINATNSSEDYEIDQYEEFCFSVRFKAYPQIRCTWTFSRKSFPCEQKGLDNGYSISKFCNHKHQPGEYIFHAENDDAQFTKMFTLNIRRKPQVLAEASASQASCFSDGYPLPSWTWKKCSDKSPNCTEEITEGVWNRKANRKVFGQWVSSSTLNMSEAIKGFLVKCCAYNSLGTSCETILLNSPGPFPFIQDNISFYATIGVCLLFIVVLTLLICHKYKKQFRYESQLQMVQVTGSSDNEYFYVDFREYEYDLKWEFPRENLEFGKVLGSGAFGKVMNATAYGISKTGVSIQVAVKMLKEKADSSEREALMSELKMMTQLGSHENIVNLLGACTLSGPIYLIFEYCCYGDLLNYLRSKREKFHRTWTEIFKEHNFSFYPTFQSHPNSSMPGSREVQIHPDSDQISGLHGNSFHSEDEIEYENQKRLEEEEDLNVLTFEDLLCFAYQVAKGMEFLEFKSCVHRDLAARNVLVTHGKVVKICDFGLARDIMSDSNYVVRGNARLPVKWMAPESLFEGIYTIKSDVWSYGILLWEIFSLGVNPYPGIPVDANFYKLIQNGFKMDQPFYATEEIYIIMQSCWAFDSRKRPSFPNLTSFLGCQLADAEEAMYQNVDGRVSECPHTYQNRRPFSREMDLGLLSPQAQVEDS
Type: cell-based
From the text: The NanoBRET assay measures kinase engagement in real time in the context of the intact cell. Unlike the previously described biochemical kinase assay methodology in Example 33, the NanoBRET assay measures the binding and activity characteristics under equilibrium conditions using full-length kinases in the presence of cellular concentrations of ATP in live, uncompromised cells. As such, the assay provides a more relevant assessment of kinase potency and selectivity that would be expected to be observed in the native cellular environment, where potency is often considerably lower than that observed in the isolated biochemical assays (Vasta, J. D. et al., (2018) Cell Chem. Biol. 25, 206-214). The assay uses a Kinase-NanoLuc® fusion vector expressing a kinase protein to which a luciferase tag has been added, a cell-permeant fluorescent NanoBRET™ tracer, a NanoLuc® substrate, and an extracellular NanoLuc® inhibitor. Upon expression of the luciferase-tagged kinase, cells will produce a strong BRET signal only in the presence of the NanoBRET™ tracer. The extracellular NanoLuc® inhibitor ensures that the BRET signal observed emanates only from live cells. Because the BRET signal has tight distance constraints, addition of the test compound will decrease the BRET signal if the compound competes with the NanoBRET™ tracer for binding to the kinase domain. Under the appropriate tracer conditions established by the manufacturer, quantitative intracellular affinity and relative potency can then be determined using Mass Action model equations.
HEK-293 cells were purchased from ATCC. FuGENEHD Transfection Reagent, Kinase-NanoLucfusion plasmids, Transfection Carrier DNA, NanoBRETTracers and dilution buffer, NanoBRETNano-Glo Substrate, Extracellular NanoLucInhibitor were obtained from Promega.
Assays were conducted following Promega assay protocol with some modifications. HEK-293 Cells were transiently transfected with Kinase-NanoLucFusion Vector DNA by FuGENEHD Transfection Reagent. Testing compounds were delivered into 384 well assay plate by Echo 550 (LabcyteInc, Sunnyvale, CA). Transfected cells were harvested and mixed with NanoBRETTracer Reagent and dispensed into 384 well plates and incubated at 37° C. in 5% C02 cell culture incubator for 1 hour. The NanoBRETNano-Glo Substrate plus Extracellular NanoLucInhibitor Solution were added into the wells of the assay plate and incubated for 2-3 minutes at room temperature. The donor emission wavelength (460 nm) and acceptor emission wavelength (600 nm) were measured in the EnVisionplate reader. The BRET Ratios were calculated. BRET Ratio=[(Acceptor sample÷Donor sample)−(Acceptor no-tracer control÷Donor no-tracer control)]. The IC50 values of compounds were calculated with Prism GraphPad program.
• 1). Cultivate HEK-293 cells (70-80% confluence) appropriately prior to assay. Trypsinize and collect HEK-293 cells. • 2). Prepare lipid: DNA complexes as follows: • a. Prepare a 10 μg/ml solution of DNA in Opti-MEM without serum that consists of the following ratios of carrier DNA and DNA encoding NanoLuc® fusion. 9.0 μg/mL of Transfection Carrier DNA, 1.0 μg/mL of NanoLuc fusion vector DNA and 1 mL of Opti-MEM without phenol red. Mix thoroughly. • b. Add 30 μl of FuGENE HD Transfection Reagent into each milliliter of DNA mixture to form lipid: DNA complex. • c. Mix by inversion 10 times. • d. Incubate at ambient temperature for 20 minutes to allow complexes to form. • 3). In a sterile, conical tube, mix 1 part of lipid:DNA complex with 20 parts of HEK-293 cells in suspension. Mix gently by inversion 5 times. • 4). Dispense cells+lipid:DNA complex into a sterile tissue culture dish and incubate for 22-24 hours.
Each test compound is delivered from the compound source plate to the wells of 384-well white NBS plate by Echo 550.
3. Preparation of Cells with NanoBRET™ Tracer Reagent • 1). […]
With CC(O)(c1ccc2ncc(-c3ccnc(N[C@H]4CNCC[C@@H]4F)n3)n2c1)C(F)(F)F (single isomer, unassigned) [Compound 25a] the IC50 was 0.04 µM. CC(O)(c1ccc2ncc(-c3ccnc(N[C@@H]4CCCNC4)n3)n2c1)C(F)(F)F (single isomer, unassigned) [Compound 22a] showed an IC50 of 0.038 µM. Work on CC(O)(c1ccc2ncc(-c3ccnc(N[C@@H]4CCCNC4)n3)n2c1)C(F)(F)F (single isomer, unassigned) [Compound 23a] yielded an IC50 of 0.003 µM. Compound COc1cc2ncc(-c3nc(N[C@H]4CNCC[C@@H]4F)ncc3F)n2nc1C1COC1 [Compound 92a, 5-fluoro-N-((3S,4S)-4-fluoropiperidin-3-yl)-4-(7-methoxy-6-(oxetan-3-yl)imidazo[1,2-b]pyridazin-3-yl)pyrimidin-2-amine] has an IC50 of 0.004 µM. CC(C)(O)c1cn2c(-c3nc(N[C@H]4CNCC[C@@H]4F)ncc3F)cnc2cn1 [Compound 100a, 2-(3-(5-fluoro-2-(((3S,4S)-4-fluoropiperidin-3-yl)amino)pyrimidin-4-yl)imidazo[1,2-a]pyrazin-6-yl)propan-2-ol] gave an IC50 of 4.25 µM. With COc1cc2ncc(-c3nc(N[C@H]4CNCC[C@@H]4F)ncc3F)n2nc1C1CC(F)(F)C1 [Compound 49a, 4-(6-(3,3-difluorocyclobutyl)-7-methoxyimidazo[1,2-b]pyridazin-3-yl)-5-fluoro-N-((3S,4S)-4-fluoropiperidin-3-yl)pyrimidin-2-amine] the IC50 was under 0.0005 µM. CC(C)(O)c1ccc2ncc(-c3nc(N[C@H]4CNCC[C@@H]4F)ncc3F)n2c1 [Compound 46a, 2-(3-(5-fluoro-2-(((3S,4S)-4-fluoropiperidin-3-yl)amino)pyrimidin-4-yl)imidazo[1,2-a]pyridin-6-yl)propan-2-ol] gave an IC50 of 0.102 µM. In the case of COc1cc2ncc(-c3nc(N[C@H]4CNC[C@@H]4F)ncc3F)n2nc1N1CCCS1(=O)=O [Compound 111a, 2-(3-(5-fluoro-2-(((3S,4S)-4-fluoropyrrolidin-3-yl)amino)pyrimidin-4-yl)-7-methoxyimidazo[1,2-b]pyridazin-6-yl)isothiazolidine 1,1-dioxide], the IC50 is reported as 0.077 µM. Work on CC(O)(c1ccc2ncc(-c3cncc(N[C@H]4CNCC[C@@H]4F)n3)n2c1)C(F)(F)F (single isomer, unassigned) [Compound 31a] yielded an IC50 of 1.81 µM. For COc1cc2ncc(-c3nc(N[C@H]4CNCC[C@@H]4F)ncc3F)n2nc1C1CC1 [Compound 1a, 4-(6-cyclopropyl-7-methoxyimidazo[1,2-b]pyridazin-3-yl)-5-fluoro-N-((3S,4S)-4-fluoropiperidin-3-yl)pyrimidin-2-amine], the IC50 was 0.001 µM. With FC(F)COc1cc2ncc(-c3ccnc(N[C@H]4CNCC[C@@H]4F)n3)n2nc1C1CC1 [Compound 4a, 4-(6-cyclopropyl-7-(2,2-difluoroethoxy)imidazo[1,2-b]pyridazin-3-yl)-N-((3 S,4S)-4-fluoropiperidin-3-yl)pyrimidin-2-amine] the IC50 was 0.004 µM. With CC(C)(O)c1ccc2ncc(-c3nc(N[C@@H]4CCCNC4)ncc3F)n2c1 [Compound 48a, (R)-2-(3-(5-fluoro-2-(piperidin-3-ylamino)pyrimidin-4-yl)imidazo[1,2-a]pyridin-6-yl)propan-2-ol] the IC50 was 0.141 µM. Compound COc1cc2ncc(-c3nc(N[C@H]4CNCC[C@@H]4F)ncc3F)n2nc1C(C)(C)O [Compound 45a, 2-(3-(5-fluoro-2-(((3S,4S)-4-fluoropiperidin-3-yl)amino)pyrimidin-4-yl)-7-methoxyimidazo[1,2-b]pyridazin-6-yl)propan-2-ol] has an IC50 of 0.044 µM. COc1cc2ncc(-c3ccnc(N[C@H]4CNCC[C@@H]4F)n3)n2nc1C1CCC1 [Compound 79a, 4-(6-cyclobutyl-7-methoxyimidazo[1,2-b]pyridazin-3-yl)-N-((3S,4S)-4-fluoropiperidin-3-yl)pyrimidin-2-amine] showed an IC50 of under 0.0005 µM. COc1cc2ncc(-c3nc(N[C@H]4CNCC[C@@H]4F)ncc3F)n2nc1N1CCCS1(=O)=O [Compound 112a, 2-(3-(5-fluoro-2-(((3S,4S)-4-fluoropiperidin-3-yl)amino)pyrimidin-4-yl)-7-methoxyimidazo[1,2-b]pyridazin-6-yl)isothiazolidine 1,1-dioxide] gave an IC50 of under 0.0005 µM. For CC(O)(c1ccc2ncc(-c3cncc(N[C@@H]4CCCNC4)n3)n2c1)C(F)(F)F (single isomer, unassigned) [Compound 28a], the IC50 was 2.96 µM. Work on F[C@H]1CCNC[C@@H]1Nc1nccc(-c2cnc3cc(OC4CC4)c(C4CC4)nn23)n1 [Compound 12a, 4-(7-cyclopropoxy-6-cyclopropylimidazo[1,2-b]pyridazin-3-yl)-N-((3S,4S)-4-fluoropiperidin-3-yl)pyrimidin-2-amine] yielded an IC50 of under 0.0005 µM.
